4 substances from article PMC13055374, “Engineered antimicrobial-derived peptides to manipulate mixed microbial systems” (Microbiology Spectrum, 2026) can be followed below.

No end group written: not given here. *: point of attachment. FITC = O=C1OC2(c3ccc(O)cc3Oc3cc(O)ccc32)c2ccc(NC(=S)*)cc21 A value given as a limit tells only on which side of the number the result lay.

For assay [1], the system named is L. seeligeri in a synthetic community. In words: Binding assay in the mixed community: FACS depletion of FITC-labeled cells, 16S sequencing of the fluorescence-negative population. As to conditions: before versus after sorting; pH 6.0, 4°C, 30 min; Fig. 4B. Format: cell-based, Listeria seeligeri. The source says: We posited that the pediocin PA-1 characterized here could be a potential tool to modulate the abundance of specific species in an intact microbial community. To this end, we pursued two approaches: (i) using synthetic pediocin PA-1 to deplete specific species by killing and (ii) using FITC-conjugated pediocin PA-1 to deplete specific species by cell sorting. To deplete L. seeligeri by killing, we created a synthetic community of Lacticaseibacillus casei, L. plantarum, L. cremoris, E. faecium, and L. seeligeri and grew it for 2 h. We then split the culture into three parts to which we added 1 μM, 10 μM, or 0 (control) unmodified pediocin PA-1 (Lifetein), respectively. […] Next, we assessed the ability of FITC-conjugated pediocin (Ped-FITC) and its 15-mer version to deplete the target species through cell sorting. Again, we created a synthetic community containing L. seeligeri in abundance and assessed the proportion before and after fluorescence-activated cell sorting (FACS) of FITC-labeled cells. We attempted to sequence the fluorescence-positive population but were unsuccessful due to poor DNA yield. However, the genomic DNA isolated from the fluorescence-negative population indicated depletion of more than 50% in the proportion of L. seeligeri from the synthetic community (Fig. 4B). […]

Assay [2] has as its system L. seeligeri. Format: cell-based, Listeria seeligeri. To be noted: for antimicrobial activity of conjugated peptides: growth inhibition, Fig. S7 and S9. As for the experimental part: To determine the potency of the purified pediocin PA-1, we generated kill curves against a range of target bacteria (Fig. 1C). The concentration range tested was 3 pM to 3 μM following 10-fold serial dilutions. […] This is in approximate agreement with the published potency of pediocin PA-1 ([46]). Though the molecular mass of pediocin PA-1 is expected to be 4.5 kDa, we observed the partially purified peptide to migrate with an apparent mass of ~12.5 kDa (Fig. 1B). However, subsequent analysis by LC-MS yielded peaks of multiple m/z with the predominant peak at the expected molecular size of 4.6 kDa (Fig. S4). The purified pediocin PA-1, separated on denaturing but non-reducing SDS-PAGE (since this bacteriocin contains two crucial disulfide bonds), was subjected to agar-overlay assay using L. seeligeri as the indicator organism (Fig. S5).
The antimicrobial spectrum of pediocin PA-1 was assayed using a kill curve. Cultures grown overnight were resuspended in fresh medium at an OD600 of 0.05. EC50 was determined by incubating cells with varying concentrations of pediocin in a 96-well plate, and growth was measured at 600 nm after 24 h.
Figure S7. Growth inhibition of L. seeligeri by modified and unmodified pediocin PA-1.

A further assay has as its system Enterococcus faecium. Put plainly: Cell-binding assay by flow cytometry. To be noted: pH 6.0, Fig. 3C. As for the experimental part: (§1) The binding affinity and avidity of pediocin to various gram-positive and gram-negative bacteria were studied using flow cytometry. Late log-phase cells were washed in the sodium phosphate buffer (5 mM, pH 6.0) and resuspended at an OD600 of 10^–3 in sodium-acetate buffer (25 mM, pH 4.0), sodium phosphate buffer (5 mM, pH 6.0), or sodium phosphate buffer (5 mM, pH 7.4) containing 1% bovine serum albumin (BSA) and 100 mM NaCl. Cells were incubated with varying concentrations of the conjugated peptide at 4°C for 30 min. The unbound peptide was removed by centrifugation, and the pellet was resuspended in its respective binding buffer containing 1% BSA. Flow cytometry was performed on an Attune NxT flow cytometer (Life Technologies/ThermoFisher Scientific, Carlsbad, CA). Data (≥10^4 events were recorded) were recorded using a […] (488 nm) at a voltage of 360 V, and gating was performed on an SSC-A versus SSC-H plot to reduce false events.

For a further assay, the system named is L. cremoris. Put plainly: Cell-binding assay by flow cytometry. On the set-up: species or system Lactococcus cremoris. To be noted: pH 6.0, flow cytometry, 4°C, 30 min; read-out: apparent KD. Here is the method: as §1
For assay [3], the system named is L. seeligeri. In words: Cell-binding assay by flow cytometry. Set-up: species or system Listeria seeligeri. As to conditions: for pH dependence of binding: pH 4.0, 6.0 and 7.4, Fig. S10. Here is the method: as §1
Assay [4] relates to L. seeligeri. Put plainly: Inhibition of the activity of full-length unmodified synthetic pediocin by truncated FITC peptides (growth inhibition curve). Format: cell-based, Listeria seeligeri. To be noted: Fig. S9. An excerpt: Despite similar primary structures, the pediocin-like bacteriocins differ in their target cell specificity (i.e., they differ in their antimicrobial spectra) ([49]). By determining the target cell specificity of hybrid bacteriocins containing N- and C-terminal regions from different pediocin-like bacteriocins, it has been shown that the C-termini of these bacteriocins determine target cell specificity ([49], [50]). […] Taking a cue from these studies, we proceeded to investigate whether fragments of pediocin PA-1 could serve as tags to specifically label pediocin-sensitive species without killing them. These could serve as tools to isolate target microorganisms from mixed samples. To this end, we synthesized fluorescein isothiocyanate (FITC)-conjugated versions of pediocin PA-1, a 15-mer (K20–A34) and an extended 30-mer fragment (S15–K43; Fig. S8). We first tested the bioactivity profile of FITC-conjugated pediocin and its fragments. […] Though the inactivity of 15-mer and 30-mer is expected, the loss of activity of pediocin-FITC conjugate could indicate the steric hindrance due to the fluorophore at the N-terminal, which is known to be critical for cell attachment ([53]). To test if this is due to the synthesis of the FITC-conjugate, we conjugated biotin, 7-nitrobenz-2-oxa-1,3-diazole (NBD), and Atto488 to the synthetic pediocin using EDC–NHS coupling (Fig. S6). […]

In another assay the test system is L. plantarum. In words: Cell-binding assay by flow cytometry. Set-up: species or system Lactiplantibacillus plantarum. To be noted: pH 6.0, Fig. 3C. Here is the method:
as §1

The next assay concerns L. coryniformis. In words: Cell-binding assay by flow cytometry. On the set-up: species or system Lactobacillus coryniformis. Here is the method: as §1
For another assay, the system named is Bacillus subtilis. In words: Cell-binding assay by flow cytometry. To be noted: pH 6.0, at the highest concentration (30 μM) tested. As for the experimental part: as §1

For “15-mer-FITC: FITC-conjugated 15-mer fragment (K20–A34) of pediocin PA-1 (KATTCIINNGAMAWA; also: FITC-conjugated (site not given here); UniProt P29430 38-52, looked up, fragment)”, in [1], the “depletion in the proportion of L. seeligeri, fluorescence-negative population after FACS” value is on record as “more than 50%”. Besides, the “antimicrobial activity of conjugated peptides” value (“antimicrobial activity” below) with L. seeligeri [2] was “completely abolished”. For the same substance, the binding result in the assay on Enterococcus faecium and in the assay with L. plantarum was “modest binding” throughout. Further, the Kd with L. cremoris is 38 ± 4.7 µM. Besides, the “pH dependence of binding” value with L. seeligeri [3] was “higher MFI at higher pHs”. Also, the “ability to inhibit the activity of the full-length unmodified synthetic pediocin” value with L. seeligeri [4] is given as “unable to do so”.

As for “30-mer-FITC: FITC-conjugated extended 30-mer fragment (S15–K43) of pediocin PA-1 (SVDWGKATTCIINNGAMAWATGGHQGNHK; also: FITC-conjugated (site not given here); UniProt P29430 33-61, looked up, fragment)”, the “antimicrobial activity” value in the assay with L. seeligeri [2] is given as “completely abolished”. The “pH dependence of binding” value with L. seeligeri [3] was “higher MFI at higher pHs”. Moreover, in the assay on L. seeligeri [3] (pH 6.0, Fig. 3), the binding result is listed as “did not show appreciable binding”. The “ability to inhibit the activity of the full-length unmodified synthetic pediocin” value with L. seeligeri [4] is reported as “unable to do so”.

Consider “Ped-488: purified biosynthetic pediocin conjugated to Atto488 using EDC–NHS chemistry (KYYGNGVTCGKHSCSVDWGKATTCIINNGAMAWATGGHQGNHKC; ends and bridges not checked; also: Atto488 conjugated by EDC–NHS chemistry (site not given here); UniProt P29430 19-62, looked up)”, for which the “increase of EC50 relative to the unmodified peptide” value in the assay on L. seeligeri [2] (kill curve, Fig. S7) was greater than 100 fold. For the same substance, the maximum fluorescence with L. coryniformis (flow cytometry) is on record as 6,300 MFI.

“Pediocin-FITC: synthesized fluorescein isothiocyanate (FITC)-conjugated full-length pediocin PA-1 ({FITC}-KYYGNGVTCGKHSCSVDWGKATTCIINNGAMAWATGGHQGNHKC; ends and bridges not checked; also: two disulfide bonds, pairing not given here; UniProt P29430 19-62, looked up)”: the “depletion in the proportion of L. seeligeri, fluorescence-negative population after FACS” value in assay [1] was “more than 50%”. Also, the “antimicrobial activity” value in the assay on L. seeligeri [2] is on record as “completely abolished”. Also, the “binding under acidic conditions” value in the assay with L. coryniformis (Fig. S10) is listed as “surprisingly poor binding”. For the same substance, in the assay with Bacillus subtilis, the binding result is given as “modest binding”. Besides, in the assay with L. seeligeri [3], the “pH dependence of binding” value was “strong binding to L. seeligeri at all the tested pHs”. Moreover, the Kd with L. seeligeri [3] (pH 6.0, flow cytometry, 4°C, 30 min, read-out: apparent KD) was determined as 0.082 ± 0.011 µM.
